Key:
Type in all cases: cell-based
SMARCA4 = molecular target: T1, SMARCA4 (Homo sapiens, UniProt P51532); assay: SMARCA4 Western blot degradation in MV4-11 cells; conditions: for SMARCA4 MSD MV411 degradation 24 h: average Dmax % / DC50: MV4-11 cells; for DC50 / Dmax: 24 h; for DC50: read-out: SMARCA4 MSD MV411 degradation 24 h: Mean external-Abs DC50; for Dmax: MV4-11, MV4-11 cells, read-out: SMARCA4 MSD MV411 degradation 24 h: average Dmax %
T1 construct: SMARCA2/SMARCA4 protein degradation selectivity in MV4-11 cells; endogenous in cells; host or cells: MV4-11
T1 sequence (P51532 whole entry): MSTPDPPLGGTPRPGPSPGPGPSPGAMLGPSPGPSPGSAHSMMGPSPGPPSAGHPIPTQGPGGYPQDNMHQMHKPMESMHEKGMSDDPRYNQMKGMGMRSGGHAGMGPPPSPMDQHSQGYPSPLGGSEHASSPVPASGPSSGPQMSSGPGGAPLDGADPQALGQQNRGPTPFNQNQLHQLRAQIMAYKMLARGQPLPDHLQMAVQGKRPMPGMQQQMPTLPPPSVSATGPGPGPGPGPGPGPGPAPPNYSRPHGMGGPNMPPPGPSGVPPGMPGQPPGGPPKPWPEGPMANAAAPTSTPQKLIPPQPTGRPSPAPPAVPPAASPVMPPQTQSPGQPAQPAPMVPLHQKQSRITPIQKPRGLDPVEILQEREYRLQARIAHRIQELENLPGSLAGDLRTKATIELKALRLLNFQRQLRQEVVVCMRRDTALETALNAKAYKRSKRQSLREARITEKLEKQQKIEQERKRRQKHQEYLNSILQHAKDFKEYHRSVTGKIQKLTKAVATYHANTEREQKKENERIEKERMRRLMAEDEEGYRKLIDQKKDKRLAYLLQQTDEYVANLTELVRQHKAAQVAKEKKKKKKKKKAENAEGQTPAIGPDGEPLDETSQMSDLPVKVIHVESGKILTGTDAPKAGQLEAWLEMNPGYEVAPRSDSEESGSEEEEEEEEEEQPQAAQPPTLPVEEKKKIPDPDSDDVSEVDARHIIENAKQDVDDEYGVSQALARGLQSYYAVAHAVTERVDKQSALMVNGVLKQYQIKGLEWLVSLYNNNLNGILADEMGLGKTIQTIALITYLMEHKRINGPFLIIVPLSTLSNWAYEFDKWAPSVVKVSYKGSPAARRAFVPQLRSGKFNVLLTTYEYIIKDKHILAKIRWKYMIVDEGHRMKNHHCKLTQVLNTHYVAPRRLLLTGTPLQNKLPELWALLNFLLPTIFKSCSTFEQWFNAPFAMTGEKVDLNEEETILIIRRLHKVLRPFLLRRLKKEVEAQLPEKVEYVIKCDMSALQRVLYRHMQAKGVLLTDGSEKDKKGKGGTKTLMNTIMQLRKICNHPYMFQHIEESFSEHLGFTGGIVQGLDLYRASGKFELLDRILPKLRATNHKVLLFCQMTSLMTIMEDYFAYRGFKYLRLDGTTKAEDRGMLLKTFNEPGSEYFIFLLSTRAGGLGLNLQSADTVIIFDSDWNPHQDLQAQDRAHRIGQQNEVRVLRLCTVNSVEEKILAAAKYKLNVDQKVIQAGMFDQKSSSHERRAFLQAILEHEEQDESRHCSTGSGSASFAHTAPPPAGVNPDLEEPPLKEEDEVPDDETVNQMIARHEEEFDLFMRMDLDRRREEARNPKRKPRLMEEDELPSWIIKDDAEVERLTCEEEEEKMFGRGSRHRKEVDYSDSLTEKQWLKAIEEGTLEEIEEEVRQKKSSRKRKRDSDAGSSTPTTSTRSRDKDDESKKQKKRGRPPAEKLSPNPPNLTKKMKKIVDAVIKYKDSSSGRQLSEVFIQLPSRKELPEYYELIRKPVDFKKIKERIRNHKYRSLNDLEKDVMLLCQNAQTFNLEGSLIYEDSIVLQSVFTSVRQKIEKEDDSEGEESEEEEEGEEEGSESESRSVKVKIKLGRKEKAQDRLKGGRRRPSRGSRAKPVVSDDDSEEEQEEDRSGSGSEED
Procedure, shortened: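 Fluorescent LI-COR imaging of Western blots quantified SMARCA2 and SMARCA4 protein remaining in MV4-11 cells after 24 h of compound treatment. β-actin was the loading control, and DC50, Dmax and SMARCA2/4 selectivity are given as letter-coded ranges.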

SMARCA2 [1] = molecular target: T2, SMARCA2 (Homo sapiens, UniProt P51531); assay: MSD SMARCA2 degradation in A549 cell line; conditions: for SMARCA2 MSD A549 degradation 24 h: Average Dmax % / DC50: A549 cells; for DC50 / Dmax: 24 h; for DC50: read-out: SMARCA2 MSD A549 degradation 24 h: Average external-Abs DC50; for Dmax: A549, A549 cells
T2 sequence (P51531 whole entry): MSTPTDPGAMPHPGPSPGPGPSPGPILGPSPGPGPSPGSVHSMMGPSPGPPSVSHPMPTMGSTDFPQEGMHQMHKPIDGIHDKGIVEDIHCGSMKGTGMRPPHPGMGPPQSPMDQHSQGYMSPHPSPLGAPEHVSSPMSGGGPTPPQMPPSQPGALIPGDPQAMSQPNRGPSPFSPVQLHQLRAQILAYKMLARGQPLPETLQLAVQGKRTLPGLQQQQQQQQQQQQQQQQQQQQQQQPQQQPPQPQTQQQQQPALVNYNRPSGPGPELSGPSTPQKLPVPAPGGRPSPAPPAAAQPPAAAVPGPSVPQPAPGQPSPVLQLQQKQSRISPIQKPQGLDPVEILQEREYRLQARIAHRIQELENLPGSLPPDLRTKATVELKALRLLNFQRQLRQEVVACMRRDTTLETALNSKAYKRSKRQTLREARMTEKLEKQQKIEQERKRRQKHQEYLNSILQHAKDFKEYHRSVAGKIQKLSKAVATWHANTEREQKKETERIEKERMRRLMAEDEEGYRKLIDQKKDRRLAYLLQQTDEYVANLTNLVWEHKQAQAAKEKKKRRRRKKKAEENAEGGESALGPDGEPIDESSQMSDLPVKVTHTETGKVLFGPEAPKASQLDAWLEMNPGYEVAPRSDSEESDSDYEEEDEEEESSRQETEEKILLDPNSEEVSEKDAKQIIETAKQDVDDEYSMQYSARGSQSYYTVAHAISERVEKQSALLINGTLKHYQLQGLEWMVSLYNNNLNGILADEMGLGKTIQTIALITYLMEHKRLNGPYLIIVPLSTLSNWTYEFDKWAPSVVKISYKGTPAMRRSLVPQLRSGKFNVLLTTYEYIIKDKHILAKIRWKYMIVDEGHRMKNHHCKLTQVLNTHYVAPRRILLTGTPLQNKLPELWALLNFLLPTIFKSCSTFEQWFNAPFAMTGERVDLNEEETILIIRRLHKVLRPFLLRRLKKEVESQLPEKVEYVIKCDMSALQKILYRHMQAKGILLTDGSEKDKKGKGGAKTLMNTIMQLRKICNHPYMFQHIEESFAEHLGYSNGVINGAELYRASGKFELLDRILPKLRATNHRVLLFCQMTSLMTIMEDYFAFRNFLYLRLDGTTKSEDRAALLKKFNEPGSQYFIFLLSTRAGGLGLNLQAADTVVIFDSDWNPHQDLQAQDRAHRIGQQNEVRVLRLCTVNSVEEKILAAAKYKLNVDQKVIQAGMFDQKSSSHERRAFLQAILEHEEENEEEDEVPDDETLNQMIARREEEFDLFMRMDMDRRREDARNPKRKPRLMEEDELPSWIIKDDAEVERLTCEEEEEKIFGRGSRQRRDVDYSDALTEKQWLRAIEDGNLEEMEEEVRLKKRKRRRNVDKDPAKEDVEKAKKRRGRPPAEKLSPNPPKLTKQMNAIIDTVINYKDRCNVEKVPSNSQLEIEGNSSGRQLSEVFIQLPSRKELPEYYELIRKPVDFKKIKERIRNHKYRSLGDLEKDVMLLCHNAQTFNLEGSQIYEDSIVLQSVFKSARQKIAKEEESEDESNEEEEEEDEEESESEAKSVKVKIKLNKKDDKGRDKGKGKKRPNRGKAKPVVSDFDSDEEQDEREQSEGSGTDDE
Procedure, shortened: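 SMARCA2 protein remaining after 24 h exposure of A549 cells (top concentration 1000 nM, 3-fold dilutions) was measured by MSD electrochemiluminescence immunoassay of cell lysates. Results are given as binned DC50 and maximal degradation (Dmax) codes.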

SMARCA2 [2] = molecular target: T2, SMARCA2; assay: SMARCA2 Western blot degradation in MV4-11 cells; set-up: SMARCA2/SMARCA4 protein degradation selectivity in MV4-11 cells; endogenous in cells; host or cells: MV4-11; conditions: for SMARCA2 MSD MV411 degradation 24 h: average Dmax % / DC50 / Selectivity in MV411: MV4-11 cells; for SMARCA2 MSD MV411 degradation 24 h: average Dmax % / DC50 / Dmax: 24 h; for DC50: read-out: SMARCA2 MSD MV411 degradation 24 h: Mean external-Abs DC50; for Selectivity in MV411: SMARCA2/4 selectivity; for Dmax: MV4-11, MV4-11 cells, read-out: SMARCA2 MSD MV411 degradation 24 h: average Dmax %

SMILES	SMARCA4 MSD MV411 degradation 24 h: average Dmax % (SMARCA4)	DC50 (SMARCA4)	SMARCA2 MSD A549 degradation 24 h: Average Dmax % (SMARCA2 [1])	DC50 (SMARCA2 [1])	SMARCA2 MSD MV411 degradation 24 h: average Dmax % (SMARCA2 [2])	DC50 (SMARCA2 [2])	Selectivity in MV411 (SMARCA2 [2])	Dmax (SMARCA4)	Dmax (SMARCA2 [1])	Dmax (SMARCA2 [2])
C#Cc1ccc(CNC(=O)[C@@H]2C[C@@H](O)CN2C(=O)[C@@H](NC(=O)N2CCC[C@@H](CN3CCC(N4CCC(N5CCN6c7cc(-c8ccccc8O)nnc7NC[C@H]6C5)CC4)CC3)C2)C(C)(C)C)cc1 (single isomer, unassigned) [I-253]	–	> 100 nM	–	> 100 nM	–	> 100 nM	D (D (<10 fold))	< 50%	< 50%	< 50%
C#Cc1ccc(CNC(=O)[C@@H]2C[C@@H](O)CN2C(=O)[C@@H](NC(=O)N2CC3(CC(N4CCC(c5cnc(N6CCc7[nH]c8nnc(-c9ccccc9O)cc8c7[C@H]6C)nc5)CC4)C3)C2)C(C)(C)CCOCC(=O)O)cc1 (single isomer, unassigned) [I-262]	–	> 100 nM	–	> 100 nM	–	10 to 100 nM	C (C (10-100 fold))	50 to 70%	50 to 70%	70 to 90%
C#Cc1ccc(CNC(=O)[C@@H]2C[C@@H](O)CN2C(=O)[C@H](NC(=O)N2CC3(CC(N4CCC(c5cnc(N6CCc7[nH]c8nnc(-c9ccccc9O)cc8c7[C@H]6C)nc5)CC4)C3)C2)C(C)(C)CCOCC(=O)O)cc1 (single isomer, unassigned) [I-263]	–	> 100 nM	–	> 100 nM	–	> 100 nM	C (C (10-100 fold))	< 50%	< 50%	< 50%
C#Cc1ccc([C@H](C)NC(=O)[C@@H]2C[C@@H](O)CN2C(=O)[C@H](c2cc(OCCN3CCN4c5cc(-c6ccccc6O)nnc5NC[C@H]4C3)no2)C(C)C)cc1 (single isomer, unassigned) [I-272]	–	> 100 nM	–	> 100 nM	–	> 100 nM	C (C (10-100 fold))	< 50%	50 to 70%	50 to 70%
C#Cc1ccc([C@H](C)NC(=O)[C@@H]2C[C@@H](O)CN2C(=O)[C@@H](c2cc(OCCN3CCN4c5cc(-c6ccccc6O)nnc5NC[C@H]4C3)no2)C(C)C)cc1 (single isomer, unassigned) [I-273]	–	> 100 nM	–	> 100 nM	–	1 to 10 nM	C (C (10-100 fold))	50 to 70%	> 90%	> 90%
C#Cc1ccc(CNC(=O)[C@@H]2C[C@@H](O)CN2C(=O)[C@@H](NC(=O)[C@H]2CC3(CC[C@H](N4CCN(c5cnc(N6CCc7[nH]c8nnc(-c9ccccc9O)cc8c7[C@H]6C)nc5)CC4)CC3)C2)C(C)(C)C)cc1 (single isomer, unassigned) [I-285]	–	> 100 nM	–	10 to 50 nM	–	10 to 100 nM	C (C (10-100 fold))	70 to 90%	> 90%	70 to 90%
C#Cc1cnc(CNC(=O)[C@@H]2C[C@@H](O)CN2C(=O)[C@@H](NC(=O)[C@H]2CCC3(CC2)C[C@H](N2CCC(c4cnc(N5CCN6c7cc(-c8ccccc8O)nnc7NC[C@H]6C5)nc4)CC2)C3)C(C)(C)C)c(OC)c1 (single isomer, unassigned) [I-286]	–	> 100 nM	–	> 100 nM	–	> 100 nM	D (D (<10 fold))	< 50%	50 to 70%	< 50%
C#Cc1ccc(CNC(=O)[C@@H]2C[C@@H](O)CN2C(=O)[C@@H](NC(=O)[C@H]2CCC3(CC2)C[C@H](N2CCN(c4cnc(N5CCN6c7cc(-c8ccccc8O)nnc7NC[C@H]6C5)nc4)CC2)C3)C(C)(C)CCO)cc1 (single isomer, unassigned) [I-287]	–	> 100 nM	–	< 10 nM	–	1 to 10 nM	A (A (>500 fold))	50 to 70%	> 90%	70 to 90%
C#Cc1cnc(CNC(=O)[C@@H]2C[C@@H](O)CN2C(=O)[C@@H](NC(=O)[C@H]2CCC3(CC2)C[C@H](N2CCC(c4cnc(N5CCN6c7cc(-c8ccccc8O)nnc7NC[C@H]6C5)nc4)CC2)C3)C(C)(C)C)c(OC)c1 (single isomer, unassigned) [I-298]	D (D (<50% degradation))	> 100 nM	B (B (>70-90% degradation))	10 to 50 nM	D (D (<50% degradation))	> 100 nM	D (D (<10 fold))	–	–	–
C#Cc1ccc(CNC(=O)[C@@H]2C[C@@H](O)CN2C(=O)[C@@H](NC(=O)[C@H]2CCC3(CC2)C[C@H](N2CCN(c4cnc(N5CCN6c7cc(-c8ccccc8O)nnc7NC[C@H]6C5)nc4)CC2)C3)C(C)(C)CCO)cc1 (single isomer, unassigned) [I-299]	C (C (50-70% degradation))	> 100 nM	A (A (>90% degradation))	< 10 nM	B (B (>70-90% degradation))	1 to 10 nM	C (C (10-100 fold))	–	–	–

Next, values leading:

SMARCA4 MSD MV411 degradation 24 h: average Dmax % (SMARCA4)	DC50 (SMARCA4)	SMARCA2 MSD A549 degradation 24 h: Average Dmax % (SMARCA2 [1])	DC50 (SMARCA2 [1])	SMARCA2 MSD MV411 degradation 24 h: average Dmax % (SMARCA2 [2])	DC50 (SMARCA2 [2])	Selectivity in MV411 (SMARCA2 [2])	Dmax (SMARCA4)	Dmax (SMARCA2 [1])	Dmax (SMARCA2 [2])	SMILES
D (D (<50% degradation))	> 100 nM	A (A (>90% degradation))	> 100 nM	B (B (>70-90% degradation))	10 to 100 nM	C (C (10-100 fold))	–	–	–	C#Cc1ccc(CNC(=O)[C@@H]2C[C@@H](O)CN2C(=O)[C@@H](NC(=O)[C@H]2CCC3(CC2)C[C@H](N2CCC(N4CC5(CC(N6CCN7c8cc(-c9ccccc9O)nnc8NC[C@H]7C6)C5)C4)CC2)C3)C(C)(C)C)c(Cl)c1 (single isomer, unassigned) [I-238]
–	10 to 100 nM	–	> 100 nM	–	1 to 10 nM	D (D (<10 fold))	> 90%	> 90%	> 90%	C#Cc1ccc(CNC(=O)[C@@H]2C[C@@H](O)CN2C(=O)[C@@H](NC(=O)[C@H]2CC3(C2)C[C@H](N2CCN(C(=O)CN4CCN5c6cc(-c7ccccc7O)nnc6NC[C@H]5C4)CC2)C3)C(C)(C)C)cc1 (single isomer, unassigned) [I-239]
–	10 to 100 nM	–	50 to 100 nM	–	1 to 10 nM	C (C (10-100 fold))	70 to 90%	> 90%	> 90%	C#Cc1ccc(CNC(=O)[C@@H]2C[C@@H](O)CN2C(=O)[C@@H](NC(=O)[C@H]2CC3(C2)C[C@H](N2CCC(N4CCC(N5CCN6c7cc(-c8ccccc8O)nnc7NC[C@H]6C5)CC4)CC2)C3)C(C)(C)C)c(O)c1 (single isomer, unassigned) [I-241]
–	> 100 nM	–	> 100 nM	–	10 to 100 nM	C (C (10-100 fold))	50 to 70%	> 90%	> 90%	C#Cc1ccc(CNC(=O)[C@@H]2C[C@@H](O)CN2C(=O)[C@@H](NC(=O)CCCN2CCC(N3CC4(CC(N5CCN6c7cc(-c8ccccc8O)nnc7NC[C@H]6C5)C4)C3)CC2)C(C)(C)C)cc1 (single isomer, unassigned) [I-244]
–	> 100 nM	–	> 100 nM	–	10 to 100 nM	C (C (10-100 fold))	50 to 70%	> 90%	70 to 90%	C#Cc1ccc(CNC(=O)[C@@H]2C[C@@H](O)CN2C(=O)[C@@H](NC(=O)[C@H]2CCC3(CC2)C[C@H](N2CCC(N(C)CCN4CCN5c6cc(-c7ccccc7O)nnc6NC[C@H]5C4)CC2)C3)C(C)(C)C)cc1 (single isomer, unassigned) [I-246]
C (C (50-70% degradation))	> 100 nM	A (A (>90% degradation))	50 to 100 nM	B (B (>70-90% degradation))	1 to 10 nM	C (C (10-100 fold))	–	–	–	C#Cc1ccc(CNC(=O)[C@@H]2C[C@@H](O)CN2C(=O)[C@@H](NC(=O)[C@H]2CCC3(CC2)C[C@H](N2CCC(N(C)CCN4CCN5c6cc(-c7ccccc7O)nnc6NC[C@H]5C4)CC2)C3)C(C)(C)C)cc1 (single isomer, unassigned) [I-247]
–	> 100 nM	–	> 100 nM	–	> 100 nM	D (D (<10 fold))	< 50%	< 50%	< 50%	C#Cc1ccc(CNC(=O)[C@@H]2C[C@@H](O)CN2C(=O)[C@H](NC(=O)[C@H]2CCC3(CC2)C[C@H](N2CCC(c4cnc(N5CCN6c7cc(-c8ccccc8O)nnc7NC[C@H]6C5)nc4)CC2)C3)C(C)(C)CCO)cc1 (single isomer, unassigned) [I-248]

— patent US20250170248A1, “SMARCA DEGRADERS AND USES THEREOF” (Kymera Therapeutics, Inc., priority 2021, published 2025)
